Measured values from US9840494B2, “Quinazoline derivative” (Tianjin Hemay Oncology Pharmaceutical Co., Ltd., priority 2013, dated 2017).
Like-named read-outs stand apart in the source and are kept apart here.

Key:
EGFR = target: T1, EGFR (Homo sapiens, UniProt P00533); assay: Inhibitory effect on tyrosine kinase activity of EGFR; type: biochemical; conditions: EGFR 40 ng/ml, ATP 10 μM, 30 min
T1 construct: purchased Invitrogen Company PV3872
Description: EGFR: Invitrogen Company, Catalogue No. PV3872
pGT (poly(glutamic acid-tyrosine)): Sigma-Aldrich Company, Catalogue No. P0275
The assay method is briefly described as follows.
3.1.1 At 4° C., 96-well microtiter plate was coated with 0.2 mg/mL pGT (as the substrate of enzyme) dissolved in PBS (phosphate buffer) overnight. Unbound pGT was washed away with a washing solution (0.05% Tween −20 in PBS), and the plate was dried in the air at room temperature for 2 h.
3.1.2 The enzyme reaction was performed in 50 μl reaction system containing 50 mM HEPEs (N-(2-hydroxyethyl)piperazine-N′-2-ethanesulfonic acid), pH 7.5, 0.01% BRIJ-35 (polyoxyethylene lauryl ether), 10 mM MgCl2, 1 mM EGTA (ethylene glycol bis(2-aminoethyl ether)tetraacetic acid), with certain concentrations of ATP (adenosine triphosphate) and kinase, and proceeded for 30 min at room temperature. The phosphate group at the terminal of ATP can be transferred to tyrosine residues of pGT by kinase catalysis so as to phosphorylate the tyrosine residues.
3.1.3 A final concentration of 1% SDS (sodium dodecyl sulfate) was added to terminate the reaction. The phosphorylated tyrosine residues were identified using pY-20. HRP at the end of the antibody enabled TMB to take on color. Then equal amount of 2 N H2SO4 was added to terminate the reaction. OD value, which is positively correlated with the phosphorylation degree of tyrosine residues of pGT, was measured at 450 nm
3.2 The concentrations of the kinase and substrate ATP were determined with reference to the literature “Optimization of a LanthaScreen Kinase assay for EGFR (ErbB1)”(https://tools.lifetechnologies.com/content/sfs/manuals/EGFR_LanthaScreen_actity_Europium.pdf), published by Invitrogen Corporation. The selection criteria for the final concentrations are that the concentration of kinase enabling the yield of the product within the linear range of the detection system and the concentration of ATP approching Km (Michaelis constant) value.
3.3.1 An appropriate amount of a compound was dissolved in DMSO (dimethylsulfoxide) to prepare 2 mM stock solution. Then the stock solution was diluted with DMSO to obtain a working solution with a 50-fold concentration of the highest test concentration, and subjected to a 4-fold gradient dilution to obtain seven concentrations in total.
5 μl 10-fold concentration of ATP dissolved in H2O (the concentration of ATP in EGFR assay is 100 μM, and in Her2 assay is 400 μM) was added to initiate the enzyme reaction followed by reaction at room temperature for 30 min
The mean value of inhibition rate and SD (standard deviation) were determined by duplicate wells. A curve with the concentration of the compound as abscissa and being in logarithmic distribution and the mean value of inhibition rate as ordinate was plotted and fitted using four-parameter logistic function.

[1] = system: human epidermoid carcinoma cell line A431; assay: In vitro inhibitory action on human tumor cells, A431 (MTT); type: cell-based; conditions: MTT assay, usually 3 days, read-out: Inhibitory activity on human epidermoid cancer cell line A431 (IC50)
Description: Human epidermoid carcinoma cell line A431, human non-small cell lung cancer cell line HCC827, head and neck cancer cell lines Fadu and human pancreatic cancer cell line AsPC-1 were purchased from Cell Bank, Chinese Academy of Sciences.
3.2 Cell culture method: cells were cultured in the complete medium at 37° C. under 5% CO2 and saturated humidity until logarithmic growth phase, i.e., adherent cells substantially approach complete confluence, and then collected for subsequent assay. For the adherent cells, they were firstly digested with trypsin/EDTA to detach.
3.3 A certain number of cells were seeded into 96-well cell culture plates (hereinafter referred to as 96-well plates). […] Finally, total cellular protein in the wells was determined using SRB assay, or cell viability was determined with MTT assay.
3.3.1 The cell seeding concentration was determined by cell growth curve assay which completely simulates compound inhibition assay process. […]
3.4 Dilution and addition of compounds: the concentration of DMSO that can be tolerant by the cells was determined by DMSO tolerance assay, and thereby selecting the dilution and addition methods of compounds. The effects of different concentrations of DMSO on cell growth were determined by DMSO tolerance assay. […] Two methods are finally determined as follows. […]

T1 sequence (P00533 25-1210): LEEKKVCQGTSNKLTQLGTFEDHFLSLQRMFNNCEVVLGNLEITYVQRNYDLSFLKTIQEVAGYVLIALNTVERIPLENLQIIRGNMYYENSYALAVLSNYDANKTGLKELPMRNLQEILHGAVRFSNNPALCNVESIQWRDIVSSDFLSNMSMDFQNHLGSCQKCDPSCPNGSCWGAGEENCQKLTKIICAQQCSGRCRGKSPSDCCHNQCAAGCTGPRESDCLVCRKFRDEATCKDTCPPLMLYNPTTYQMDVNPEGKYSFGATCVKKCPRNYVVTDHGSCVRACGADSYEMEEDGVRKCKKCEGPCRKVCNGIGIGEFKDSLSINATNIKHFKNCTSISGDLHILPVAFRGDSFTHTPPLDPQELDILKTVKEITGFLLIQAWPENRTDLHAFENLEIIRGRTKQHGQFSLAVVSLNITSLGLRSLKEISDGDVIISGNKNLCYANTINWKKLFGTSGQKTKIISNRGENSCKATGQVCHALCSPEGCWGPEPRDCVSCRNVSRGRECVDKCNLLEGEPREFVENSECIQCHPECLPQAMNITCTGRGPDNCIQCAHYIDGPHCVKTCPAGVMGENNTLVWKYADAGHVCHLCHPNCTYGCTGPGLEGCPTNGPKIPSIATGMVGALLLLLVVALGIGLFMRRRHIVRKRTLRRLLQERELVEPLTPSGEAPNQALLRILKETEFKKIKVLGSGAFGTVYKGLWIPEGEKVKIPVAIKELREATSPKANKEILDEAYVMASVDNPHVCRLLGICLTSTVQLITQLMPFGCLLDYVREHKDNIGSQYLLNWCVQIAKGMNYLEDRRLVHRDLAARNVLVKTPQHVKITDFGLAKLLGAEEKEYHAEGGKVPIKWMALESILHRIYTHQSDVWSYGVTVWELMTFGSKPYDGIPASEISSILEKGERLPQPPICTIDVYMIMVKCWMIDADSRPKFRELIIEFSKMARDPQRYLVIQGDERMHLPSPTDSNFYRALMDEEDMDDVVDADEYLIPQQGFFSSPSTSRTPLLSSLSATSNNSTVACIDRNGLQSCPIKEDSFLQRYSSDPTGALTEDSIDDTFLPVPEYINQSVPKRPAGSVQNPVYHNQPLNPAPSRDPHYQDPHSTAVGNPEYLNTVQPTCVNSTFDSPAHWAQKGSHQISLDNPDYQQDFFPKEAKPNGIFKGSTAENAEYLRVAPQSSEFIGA

Row | Compound | IC50 (EGFR) [nM] | IC50 [1] [nM] | IC50 ([1]; Homo sapiens, A-431, 72 h) [nM]
1 | COCCOc1cc2ncnc(Nc3ccc(F)c(Cl)c3)c2cc1NC(=O)C=C1CCN(CCOC)CC1.CS(=O)(=O)O [Compound 3, N-[4-(3-chloro-4-fluorophenylamino)-7-(2-methoxyethoxy)quinazolin-6-yl]-2-[1-(2-methoxyethyl)piperidin-4-ylidene]acetamide dimethylsulfonate] | 0.4 | 138 | 
2 | COCCOc1cc2ncnc(Nc3ccc(F)c(Cl)c3)c2cc1NC(=O)C=C1CCN(CCOC)CC1 [Compound 1, N-[4-(3-chloro-4-fluorophenylamino)-7-(2-methoxyethoxy)quinazolin-6-yl]-2-[1-(2-methoxyethyl)piperidin-4-ylidene]acetamide] | 0.4 |  | 125
3 | COCCOc1cc2ncnc(Nc3ccc(F)c(Cl)c3)c2cc1NC(=O)C=C1CCN(CCOC)CC1.Cl.Cl [Compound 2, N-[4-(3-chloro-4-fluorophenylamino)-7-(2-methoxyethoxy)quinazolin-6yl]-2-[1-(2-methoxyethyl)piperidin-4-ylidene]acetamide dihydrochloride] | 0.5 |  | 
